The structures appear in SMILES notation. Active and inactive are the calls of the source. No cut-off for these calls is given here.

The results in this text go back to ChEMBL document CHEMBL2401643, “The discovery of potent selective NPY Y(2) antagonists” (Bioorg Med Chem Lett, 2013).

The target of data set [1] is T1, Neuropeptide Y receptor type 2 (Homo sapiens, UniProt P49146).
T1 sequence (P49146 whole entry): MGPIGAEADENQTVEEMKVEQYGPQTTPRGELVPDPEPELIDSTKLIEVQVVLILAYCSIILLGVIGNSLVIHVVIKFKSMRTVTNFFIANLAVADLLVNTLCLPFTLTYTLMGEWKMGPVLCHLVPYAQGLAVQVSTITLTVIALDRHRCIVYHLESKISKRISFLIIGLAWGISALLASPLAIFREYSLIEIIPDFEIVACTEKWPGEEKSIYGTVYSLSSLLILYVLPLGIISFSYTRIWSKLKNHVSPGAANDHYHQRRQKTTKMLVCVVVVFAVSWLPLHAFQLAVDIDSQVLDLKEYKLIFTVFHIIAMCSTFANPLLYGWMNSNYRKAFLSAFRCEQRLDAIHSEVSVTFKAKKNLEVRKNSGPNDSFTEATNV
Put plainly: (§1) Displacement of [125I]PYY from NPY-Y2 receptor in human KAN-TS cell membranes after 1 hr by scintillation counting analysis. A general note: In a radioligand displacement assay an active substance lowers the binding of a labelled ligand.

Data set [2] addresses T2, Neuropeptide Y receptor type 2 (Homo sapiens) (UniProt P49146).
T2 sequence (whole entry): T1 sequence (P49146 whole entry)
The data set is described as §1.

The target in data set [3] is T3, Microsomal triglyceride transfer protein large subunit (Homo sapiens, UniProt P55157).
T3 sequence (P55157 whole entry): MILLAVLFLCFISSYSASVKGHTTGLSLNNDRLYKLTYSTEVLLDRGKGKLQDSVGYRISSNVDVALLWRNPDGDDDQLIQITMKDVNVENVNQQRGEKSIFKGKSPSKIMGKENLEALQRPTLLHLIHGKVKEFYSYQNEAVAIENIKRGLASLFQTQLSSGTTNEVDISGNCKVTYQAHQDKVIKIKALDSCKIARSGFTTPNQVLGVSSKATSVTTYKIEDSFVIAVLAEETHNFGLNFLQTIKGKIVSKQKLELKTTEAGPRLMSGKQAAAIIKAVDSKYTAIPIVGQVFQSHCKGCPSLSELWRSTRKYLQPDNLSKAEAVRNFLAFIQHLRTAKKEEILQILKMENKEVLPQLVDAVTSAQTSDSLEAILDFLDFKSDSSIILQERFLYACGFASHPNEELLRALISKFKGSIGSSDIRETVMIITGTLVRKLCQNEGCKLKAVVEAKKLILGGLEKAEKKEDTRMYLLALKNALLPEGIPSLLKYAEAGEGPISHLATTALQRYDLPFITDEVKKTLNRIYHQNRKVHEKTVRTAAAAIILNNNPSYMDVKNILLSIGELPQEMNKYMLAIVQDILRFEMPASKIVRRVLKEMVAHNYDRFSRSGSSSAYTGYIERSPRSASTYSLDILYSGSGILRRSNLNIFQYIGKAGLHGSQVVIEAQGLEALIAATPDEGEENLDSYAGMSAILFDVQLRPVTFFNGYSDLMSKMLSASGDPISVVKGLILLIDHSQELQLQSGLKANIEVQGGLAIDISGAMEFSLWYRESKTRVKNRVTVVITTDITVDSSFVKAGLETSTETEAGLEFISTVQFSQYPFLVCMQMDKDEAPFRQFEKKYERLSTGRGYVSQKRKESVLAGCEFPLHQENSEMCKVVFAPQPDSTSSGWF
Put plainly: Inhibition of MTP (unknown origin).

Data set [4] can be described thus: Metabolic stability in rat liver microsomes assessed as compound remaining after 15 mins. The data set is classed as ADME, Microsome. The following applies: read-out: Stability.
A short description of data set [5]: Metabolic stability in human liver microsomes assessed as compound remaining after 15 mins. The data set is classed as ADME, Microsome. Particulars: read-out: Stability.
Data set [6] deals with T3, Microsomal triglyceride transfer protein large subunit. The data set is described as follows: Inhibition of MTP (unknown origin)-mediated triglyceride transfer from donor to acceptor vesicles preincubated for 5 mins followed by enzyme addition by [14C]-counting analysis.
Data set [7] has as its target T1, Neuropeptide Y receptor type 2. The data set is described as follows: Antagonist activity at NPY-Y2 receptor in human KAN-TS cell membranes assessed as inhibition of PYY-stimulated [35S]GTPgammaS binding preincubated for 30 mins prior to [35S]GTPgammaS-treatment measured after 1 hr. Particulars: read-out: pA2 (converted). It is filed as functional.
In data set [8] the test system is Rattus norvegicus. Put plainly: Receptor occupancy in Sprague-Dawley rat brain at 10 mg/kg, sc by LC/MS analysis. It is filed as functional.

`CCNC(=O)C(c1ccccc1)C1CCN(c2ccc(C(=O)Nc3ccccc3-c3ccccc3)cc2F)CC1` (centres undefined) returned an IC50 in data set [1] of 45 nM.

In the case of `CCNC(=O)C(c1ccccc1)C1CCN(c2ccc(NC(=O)c3ccccc3-c3cccnc3)cc2F)CC1` (centres undefined), in data set [1], the IC50 was determined as 24 nM.

Consider `CCNC(=O)C(c1ccccc1)C1CCN(c2ccc(NS(=O)(=O)c3ccccc3-c3ccccc3)cc2F)CC1` (centres undefined), for which the outcome in data set [2] was inactive.

Regarding `CCN(CC)C(=O)C(c1ccccc1)N1CCN(c2ccc(NC(=O)c3ccccc3-c3cccnc3)cc2F)CC1` (centres undefined), half-maximal inhibition in data set [3] (IC50) required 710 nM. Also, the remaining at 0.25 h in data set [4] was determined as 1.7%; in data set [5], 1.4%.

For the molecule `CCN(CC)C(=O)C(c1ccccc1)C1CCN(c2ccc(NC(=O)c3ccccc3-c3cccnc3)cc2F)CC1` (centres undefined), the remaining at 0.25 h in data set [4] was found to be 98%; in data set [5], 73%. This molecule also yielded an IC50 in data set [1] of 7 nM.

Turning to `CCNC(=O)C(c1ccccc1)C1CCN(c2ccc(NC(=O)c3c(C)noc3C)cc2F)CC1` (centres undefined), the half-maximal inhibitory concentration (IC50) in data set [1] is 476 nM.

In data set [6], `CCNC(=O)C(c1ccccc1)C1CCN(c2ccc(NC(=O)Nc3c(C)noc3C)cc2F)CC1` (centres undefined) showed a concentration for half-maximal inhibition (IC50) of over 10000 nM. Further, the Kb in data set [7] was 3.98 nM. For the same molecule, the Occ entry in data set [8] is “inactive”.

In the case of `CCN(CC)C(=O)C(c1ccccc1)C1CCN(c2ccc(NC(=O)Nc3c(C)noc3C)cc2F)CC1` (centres undefined), the IC50 was over 10000 nM in data set [6] and 12 nM in data set [1]. The remaining at 0.25 h in data set [4] was determined as 17%; in data set [5], 1.5%. Besides, the Kb in data set [7] was 2 nM. In data set [8], the Occ result is “inactive”.

On to `CCN(CC)C(=O)C(c1ccccc1)C1CCN(c2ccc(NC(=O)c3c(C)noc3C)cc2F)CC1` (centres undefined), for which the IC50 in data set [6] is over 10000 nM; in data set [1] it was 37 nM. In addition, the remaining at 0.25 h in data set [4] was 3.3%; in data set [5], 5.3%. Also, the Kb in data set [7] was 31.6 nM. In data set [8] (route subcutaneous), this molecule returned an Occ of 50%.

In turn, `CCNC(=O)C(c1ccccc1)C1CCN(c2ccc(NC(=O)c3ccccc3-c3ccsc3)cc2F)CC1` (centres undefined) registered an IC50 in data set [1] of 70 nM.

Molecule `CCNC(=O)C(c1ccccc1)C1CCN(c2ccc(NC(=O)c3ccccc3-c3ccccc3)cc2F)CC1` (centres undefined) had an IC50 in data set [1] of 12 nM.

As to `CCNC(=O)C(c1ccccc1)C1CCN(c2ccc(NC(=O)c3ccccc3Br)cc2F)CC1` (centres undefined), the IC50 in data set [1] was 665 nM.

Regarding `CCNC(=O)C(c1ccccc1)C1CCN(c2ccc(NC(=O)Nc3ccccc3-c3ccccc3)cc2F)CC1` (centres undefined), the IC50 in data set [1] stood at 27 nM.

The term IC50 denotes the concentration at which inhibition is half-maximal.
